Test system: T cells
Test: not given
Settings: oral administration of KD025, healthy human subjects, ex-vivo stimulation of T-cells; cited from earlier work

SMILES | reduction of the ability of T cells to secrete IL-17 | reduction of the ability of T cells to secrete IL-21
CC(C)NC(=O)COc1cccc(-c2nc(Nc3ccc4[nH]ncc4c3)c3ccccc3n2)c1 [KD025] | 60% | 90%

Molecular target: T1, N-terminal 6His-tagged ROCK2 catalytic domain 11-552 (Homo sapiens, UniProt O75116)
T1 construct: N-terminal 6His-tagged ROCK2 catalytic domain 11-552; 6His (N); purchased Dundee University, UK; host or cells: baculovirus expression system
Test: ROCK2 binding activity: ROCK2 inhibition, ADP-Glo Kinase Assay
Format: biochemical
Settings: 1.25 nM ROCK2, 100 μM long S6 peptide, 20 μM ATP; 1 hour pre-incubation; read-out: ADP-Glo kinase activity assay ROCK2 Category
Procedure, shortened: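 1.25 nM baculovirus-expressed ROCK2 pre-incubated 1 h with compound (1% DMSO), then 100 μM long S6 peptide and 20 μM ATP added for 1 h; 50 mM HEPES pH 7.5, 10 mM Mg acetate, 1 mM DTT. ADP-Glo luminescence; IC50 from four-parameter logistic fit.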

T1 sequence (O75116 11-552): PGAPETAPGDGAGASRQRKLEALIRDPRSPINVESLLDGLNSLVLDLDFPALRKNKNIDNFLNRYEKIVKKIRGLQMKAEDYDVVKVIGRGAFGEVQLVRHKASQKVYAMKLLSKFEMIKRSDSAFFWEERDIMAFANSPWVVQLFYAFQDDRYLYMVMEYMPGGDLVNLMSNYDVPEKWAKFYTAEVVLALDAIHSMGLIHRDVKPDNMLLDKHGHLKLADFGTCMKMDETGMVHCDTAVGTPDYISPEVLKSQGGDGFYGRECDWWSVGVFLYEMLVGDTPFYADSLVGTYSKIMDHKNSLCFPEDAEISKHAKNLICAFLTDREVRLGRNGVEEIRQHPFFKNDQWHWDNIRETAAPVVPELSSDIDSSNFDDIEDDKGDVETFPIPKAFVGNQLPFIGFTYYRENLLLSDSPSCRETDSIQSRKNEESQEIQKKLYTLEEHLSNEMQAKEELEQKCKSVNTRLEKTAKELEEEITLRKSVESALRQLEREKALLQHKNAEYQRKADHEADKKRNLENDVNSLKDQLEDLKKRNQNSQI

SMILES | IC50
Cc1c(Nc2nc(-c3ccc(C(=O)NCC(F)(F)F)nc3)nn2C)ccc2[nH]ncc12 [Example 418] | 300 to 3000 nM
Cc1c(Nc2nc(-c3ccc(C(=O)NCC(F)(F)F)c(F)c3F)nn2C)ccc2[nH]ncc12 [Example 419] | < 300 nM
COc1cc(-c2nc(Nc3ccc4[nH]ncc4c3C)n(C)n2)cnc1C(=O)NC1CC1 [Example 420] | 300 to 3000 nM
Cc1c(Nc2nc(-c3ccc(C(=O)NCC(F)(F)F)cc3)nn2C)ccc2[nH]ncc12 [Example 421] | < 300 nM
Cc1c(Nc2nc(-c3ccc(C(N)C(F)(F)F)cc3)nn2C)ccc2[nH]ncc12 (stereo not shown) [Example 422] | > 10000 nM
CCc1c(Nc2nc(-c3ccc(C(=O)NCC(F)(F)F)cc3)nn2C)ccc2[nH]ncc12 [Example 423] | < 300 nM
CCc1c(Nc2nc(-c3ccc(C(=O)NCC(F)(F)F)c(C)c3)nn2C)ccc2[nH]ncc12 [Example 424] | < 300 nM
CC(C)c1c(Nc2nc(-c3ccc(C(=O)NCC(F)(F)F)cc3)nn2C)ccc2[nH]ncc12 [Example 425] | 300 to 3000 nM
C=Cc1c(Nc2nc(-c3ccc(C(=O)NCC)cc3)nn2C)ccc2[nH]ncc12 [Example 426] | < 300 nM
Cc1n[nH]c2ccc(Nc3nc(-c4ccc(C(=O)NCC(F)(F)F)cc4)nn3C)cc12 [Example 427] | < 300 nM
Cn1nc(-c2ccc(C(=O)NCC(F)(F)F)cc2)nc1Nc1ccc2[nH]nc(F)c2c1 [Example 428] | < 300 nM
COc1cc(-c2nc(Nc3ccc4[nH]nc(Cl)c4c3)n(C)n2)ccc1C(=O)NCC(F)(F)F [Example 429] | < 300 nM
Cn1nc(-c2ccc(C(=O)NCC(F)(F)F)cc2)nc1Nc1ccc2[nH]nc(Cl)c2c1 [Example 430] | < 300 nM
COc1cc(-c2nc(Nc3cc4cn[nH]c4cc3F)n(C)n2)ccc1C(=O)NC(C)(C)C [Example 432] | 3000 to 10000 nM
COc1cc(-c2nc(Nc3cnc4[nH]ncc4c3)n(C)n2)ccc1OCC(=O)NC(C)C [Example 433] | 300 to 3000 nM
COc1cc(-c2nc(Nc3ccc4[nH]ncc4c3Cl)n(CCN3CCOCC3)n2)ccc1OCC(=O)NC(C)C [Example 434] | < 300 nM
Cc1cc(-c2nc(Nc3ccc4[nH]ncc4c3Cl)n(CC(C)C)n2)ccc1C(=O)NCC(F)(F)F [Example 435] | < 300 nM
COc1cc(-c2nc(Nc3ccc4[nH]ncc4c3Cl)n(CC(C)C)n2)ccc1OCC(=O)NC(C)C [Example 436] | < 300 nM
COc1cc(-c2nc(Nc3ccc4[nH]ncc4c3Cl)n(CC(C)C)n2)ccc1C(=O)NCC(F)(F)F [Example 437] | < 300 nM
COCCn1nc(-c2ccc(C(=O)NCC(F)(F)F)cc2)nc1Nc1ccc2[nH]ncc2c1C1CC1 [Example 438] | < 300 nM
COCCn1nc(-c2ccc(C(=O)NCC(F)(F)F)c(OC)c2)nc1Nc1ccc2[nH]ncc2c1C1CC1 [Example 439] | < 300 nM
COCCn1nc(-c2ccc(C(=O)NC3CC3)cc2)nc1Nc1ccc2[nH]ncc2c1C1CC1 [Example 440] | < 300 nM
CCn1nc(-c2ccc(C(=O)NCC(F)(F)F)c(OC)c2)nc1Nc1ccc2[nH]ncc2c1C1CC1 [Example 441] | < 300 nM
O=C(NCC(F)(F)F)c1ccc(-c2nc(Nc3ccc4[nH]ncc4c3C3CC3)n(C3CCNCC3)n2)cc1 [Example 442] | < 300 nM
CNCCn1nc(-c2ccc(C(=O)NCC(F)(F)F)cc2)nc1Nc1ccc2[nH]ncc2c1C1CC1 [Example 443] | < 300 nM
CC(O)Cn1nc(-c2ccc(C(=O)NCC(F)(F)F)cc2)nc1Nc1ccc2[nH]ncc2c1C1CC1 (stereo not shown) [Example 444] | < 300 nM
COc1cc(-c2nc(Nc3ccc4[nH]ncc4c3)n(CCN3CCCCC3)n2)ccc1OCC(=O)NC(C)C [Example 445] | < 300 nM
COc1cc(-c2nc(Nc3ccc4[nH]ncc4c3)n(CCN3CCOCC3)n2)ccc1OCC(=O)NC(C)C [Example 446] | < 300 nM

Results, then the compound that gave them:

IC50 | SMILES
< 300 nM | COCCn1nc(-c2ccc(OCC(=O)NC(C)C)c(OC)c2)nc1Nc1ccc2[nH]ncc2c1 [Example 447]
< 300 nM | COCCn1nc(-c2ccc(C(=O)NCC(F)(F)F)c(OC)c2)nc1Nc1ccc2[nH]ncc2c1C [Example 448]
< 300 nM | COc1cc(-c2nc(Nc3ccc4[nH]ncc4c3C)n(C(C)C)n2)ccc1C(=O)NCC(F)(F)F [Example 449]
< 300 nM | COc1cc(-c2nc(Nc3ccc4[nH]ncc4c3C)n(C(C)C)n2)ccc1OCC(=O)NC(C)C [Example 450]
< 300 nM | Cc1cc(-c2nc(Nc3ccc4[nH]ncc4c3C)n(CC(C)C)n2)ccc1C(=O)NCC(F)(F)F [Example 451]
< 300 nM | COc1cc(-c2nc(Nc3ccc4[nH]ncc4c3C)n(CC(C)C)n2)ccc1OCC(=O)NC(C)C [Example 452]
< 300 nM | COCCn1nc(-c2ccc(C(=O)NCC(F)(F)F)cc2)nc1Nc1ccc2[nH]ncc2c1C [Example 453]
< 300 nM | COCCn1nc(-c2ccc(C(=O)NCC(F)(F)F)c(C)c2)nc1Nc1ccc2[nH]ncc2c1C [Example 454]
< 300 nM | COc1cc(-c2nc(Nc3ccc4[nH]ncc4c3C)n(CC(C)C)n2)ccc1C(=O)NCC(F)(F)F [Example 455]
< 300 nM | COc1cc(-c2nc(Nc3ccc4[nH]ncc4c3C)n(C3CC3)n2)ccc1C(=O)NCC(F)(F)F [Example 456]
< 300 nM | CCn1nc(-c2ccc(C(=O)NCC(F)(F)F)c(OC)c2)nc1Nc1ccc2[nH]ncc2c1C [Example 457]
< 300 nM | C=C(C)c1c(Nc2nc(-c3ccc(C(=O)NCC(F)(F)F)cc3)nn2C)ccc2[nH]ncc12 [Example 458, 4-[5-[(4-isopropenyl-1H-indazol-5-yl)amino]-1-methyl-1,2,4-triazol-3-yl]-N-(2,2,2-trifluoroethyl)benzamide]
< 300 nM | C=C(C)c1c(Nc2nc(-c3ccc(C(=O)NCC)cc3)nn2C)ccc2[nH]ncc12 [Example 459, N-ethyl-4-[5-[(4-isopropenyl-1H-indazol-5-yl)amino]-1-methyl-1,2,4-triazol-3-yl]benzamide]
< 300 nM | CC(C)NC(=O)COc1ccc(-c2nc(Nc3ccc4[nH]ncc4c3)n(C)n2)cc1 [Example 470]
< 300 nM | CC(C)NC(=O)COc1ccc(-c2nc(Nc3ccc4[nH]ncc4c3Cl)n(C)n2)cc1 [Example 471]
< 300 nM | CC(C)NC(=O)COc1ccc(-c2nc(Nc3ccc4[nH]ncc4c3Cl)n(C)n2)cc1Cl [Example 472]
< 300 nM | CC(C)NC(=O)COc1ccc(-c2nc(Nc3ccc4[nH]ncc4c3)n(C)n2)cc1F [Example 473]
< 300 nM | CC(C)NC(=O)COc1ccc(-c2nc(Nc3ccc4[nH]ncc4c3Cl)n(C)n2)cc1F [Example 474]
< 300 nM | CC(C)NC(=O)COc1ccc(-c2nc(Nc3ccc4[nH]ncc4c3Cl)n(C)n2)c(C(F)(F)F)c1 [Example 475]

Reference: patent US11497751B2, “Modulators of Rho-associated protein kinase” (Redx Pharma PLC, priority 2018, dated 2022)
